# Measured values published in patent publication US20150105252A1, “SUBSTITUTED PYRAZOLES AS HERBICIDES” (E I DU PONT DE NEMOURS AND COMPANY, priority 2013, published 2015).
# How the values were obtained:
# [1] = test system: corn; assay: Test A postemergence; type: in vivo, Zea mays
# Outline: (§1)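 Seeds were sown in a loam soil–sand blend and given a directed soil spray preemergence; postemergence plants at 2–10 cm, one- to two-leaf stage, were sprayed with compound in non-phytotoxic solvent with surfactant. After about 10 days in a greenhouse, injury was visually rated against untreated controls (0 = no effect, 100 = complete control).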
# [2] = test system: morningglory; assay: Test C postemergence; type: in vivo, Ipomoea coccinea; conditions: for Plant response rating (scale of 0 to 100 where 0 is no effect and 100 is complete control), Morningglory: Postemergence, 31 g ai/ha, visually evaluated after 13 to 15 days; for Morningglory plant response rating / Plant response rating, Morningglory: postemergence; for Morningglory plant response rating: 62 g ai/ha, scale 0 to 100
# Outline: (§2)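 Visual rating, 0–100 scale (0 no effect, 100 complete control), vs untreated controls after 13–15 d greenhouse. Pre: seeds in loam/sand, treated at sowing. Post: plants in peat-based mix, 1- to 4-leaf (2–18 cm). Solvent + surfactant formulation, non-phytotoxic.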
# [3] = test system: barnyardgrass; assay: Test C postemergence; type: in vivo, Echinochloa crus-galli; conditions: for Plant response rating (scale of 0 to 100 where 0 is no effect and 100 is complete control), Barnyardgrass: Postemergence, 31 g ai/ha, visually evaluated after 13 to 15 days; for Barnyardgrass plant response rating / Plant response rating, Barnyardgrass: postemergence; for Barnyardgrass plant response rating: 62 g ai/ha, scale 0 to 100
# Outline: as §2
# [4] = test system: nutsedge, yellow; assay: Test C preemergence; type: in vivo, Cyperus esculentus; conditions: preemergence; for Plant response rating, Nutsedge, Yellow: 125 g ai/ha, scale 0 to 100, 0 = no effect, 100 = complete control
# Outline: as §2
# [5] = test system: galium; assay: Test C postemergence; type: in vivo, Galium aparine; conditions: for Plant response rating (scale of 0 to 100 where 0 is no effect and 100 is complete control), Galium: Postemergence, 31 g ai/ha, visually evaluated after 13 to 15 days; for Galium plant response rating / Plant response rating, Galium: postemergence; for Galium plant response rating: 62 g ai/ha, scale 0 to 100
# Outline: as §2
# [6] = test system: crabgrass, large; assay: Test A preemergence; type: in vivo, Digitaria sanguinalis; conditions: preemergence; for Crabgrass, Large plant response rating (0 to 100 scale): 125 g ai/ha, visual injury approx. 10 days after treatment; for Crabgrass, Large plant response rating: 500 g ai/ha, visual injury after approx. 10 days, 0 to 100 scale (0 no effect, 100 complete control)
# Outline: as §1
# [7] = test system: blackgrass; assay: Test C postemergence; type: in vivo, Alopecurus myosuroides; conditions: for Plant response rating (scale of 0 to 100 where 0 is no effect and 100 is complete control), Blackgrass: Postemergence, 31 g ai/ha, visually evaluated after 13 to 15 days; for Blackgrass plant response rating / Plant response rating, Blackgrass: postemergence; for Blackgrass plant response rating: 62 g ai/ha, scale 0 to 100
# Outline: as §2
# [8] = test system: corn; assay: Test C preemergence; type: in vivo, Zea mays; conditions: preemergence; for Plant response rating, Corn: 125 g ai/ha, scale 0 to 100, 0 = no effect, 100 = complete control
# Outline: as §2
# [9] = test system: foxtail, giant; assay: Test C postemergence; type: in vivo, Setaria faberii; conditions: for Plant response rating (scale of 0 to 100 where 0 is no effect and 100 is complete control), Foxtail, Giant: Postemergence, 31 g ai/ha, visually evaluated after 13 to 15 days; for Foxtail, Giant plant response rating / Plant response rating, Foxtail, Giant: postemergence; for Foxtail, Giant plant response rating: 62 g ai/ha, scale 0 to 100
# Outline: as §2
# [10] = test system: foxtail, giant; assay: Test A postemergence; type: in vivo, Setaria faberii
# Outline: as §1
# [11] = test system: waterhemp; assay: Test C preemergence; type: in vivo, Amaranthus rudis; conditions: preemergence; for Plant response rating, Waterhemp: 125 g ai/ha, scale 0 to 100, 0 = no effect, 100 = complete control
# Outline: as §2
# [12] = test system: crabgrass, large; assay: Test A postemergence; type: in vivo, Digitaria sanguinalis
# Outline: as §1
# [13] = test system: ryegrass, Italian; assay: Test C preemergence; type: in vivo, Lolium multiflorum; conditions: preemergence; for Plant response rating, Ryegrass, Italian: 125 g ai/ha, scale 0 to 100, 0 = no effect, 100 = complete control
# Outline: as §2
# [14] = test system: galium; assay: Test C preemergence; type: in vivo, Galium aparine; conditions: preemergence; for Plant response rating, Galium: 125 g ai/ha, scale 0 to 100, 0 = no effect, 100 = complete control
# Outline: as §2
# [15] = test system: wheat; assay: Test A preemergence; type: in vivo, Triticum aestivum; conditions: preemergence; for Wheat plant response rating (0 to 100 scale): 125 g ai/ha, visual injury approx. 10 days after treatment; for Wheat plant response rating: 500 g ai/ha, visual injury after approx. 10 days, 0 to 100 scale (0 no effect, 100 complete control)
# Outline: as §1
# [16] = test system: morningglory; assay: Test A postemergence; type: in vivo, Ipomoea spp.
# Outline: as §1
# [17] = Postemergence, 500 g ai/ha, 0 to 100 scale (0 no effect, 100 complete control)
# [18] = postemergence, 125 g ai/ha, about 10 days, visual rating on 0 to 100 scale (0 no effect, 100 complete control)
# [19] = 250 g ai/ha, scale 0 to 100 (0 no effect, 100 complete control)
# [20] = 125 g ai/ha, scale 0 to 100, 0 no effect, 100 complete control
# [21] = 31 g ai/ha, visual rating, scale 0 to 100 (0 no effect, 100 complete control), 13 to 15 days
# [22] = 62 g ai/ha, scale 0 to 100 (0 no effect, 100 complete control), 13 to 15 days
# [23] = 250 g ai/ha, scale 0 to 100, 0 is no effect, 100 is complete control
smiles,measurement,setting,value
CCCNC(=O)c1cc(CCF)n(Cc2ccnc(C(F)(F)F)c2)n1 [Compound 177],Corn plant response rating,[1]; [17],100
same,Corn plant response rating,[1]; [18],90
same,"Plant response rating (scale of 0 to 100 where 0 is no effect and 100 is complete control), Morningglory",[2],60
same,Morningglory plant response rating,[2],40
same,"Plant response rating, Morningglory",[2]; [19],80
same,"Plant response rating, Morningglory",[2]; [20],85
same,"Plant response rating (scale of 0 to 100 where 0 is no effect and 100 is complete control), Barnyardgrass",[3],5
same,Barnyardgrass plant response rating,[3],5
same,"Plant response rating, Barnyardgrass",[3]; [19],20
same,"Plant response rating, Barnyardgrass",[3]; [20],10
same,"Nutsedge, Yellow plant response rating",[4]; [21],5
same,"Nutsedge, Yellow plant response rating",[4]; [22],60
same,"Plant response rating, Nutsedge, Yellow",[4]; 13 to 15 days,80
same,"Nutsedge, Yellow plant response rating",[4]; [23],95
same,"Plant response rating (scale of 0 to 100 where 0 is no effect and 100 is complete control), Galium",[5],50
same,Galium plant response rating,[5],50
same,"Plant response rating, Galium",[5]; [19],90
same,"Plant response rating, Galium",[5]; [20],80
same,"Crabgrass, Large plant response rating (0 to 100 scale)",[6],100
same,"Crabgrass, Large plant response rating",[6],100
same,"Plant response rating (scale of 0 to 100 where 0 is no effect and 100 is complete control), Blackgrass",[7],20
same,Blackgrass plant response rating,[7],15
same,"Plant response rating, Blackgrass",[7]; [19],35
same,"Plant response rating, Blackgrass",[7]; [20],20
same,Corn plant response rating,[8]; [21],5
same,Corn plant response rating,[8]; [22],40
same,"Plant response rating, Corn",[8]; 13 to 15 days,90
same,Corn plant response rating,[8]; [23],98
same,"Plant response rating (scale of 0 to 100 where 0 is no effect and 100 is complete control), Foxtail, Giant",[9],5
same,"Foxtail, Giant plant response rating",[9],10
same,"Plant response rating, Foxtail, Giant",[9]; [19],45
same,"Plant response rating, Foxtail, Giant",[9]; [20],30
same,"Foxtail, Giant plant response rating",[10]; [17],100
same,"Foxtail, Giant plant response rating",[10]; [18],100
same,Waterhemp plant response rating,[11]; [21],98
same,Waterhemp plant response rating,[11]; [22],98
same,"Plant response rating, Waterhemp",[11]; 13 to 15 days,98
same,Waterhemp plant response rating,[11]; [23],100
same,"Crabgrass, Large plant response rating",[12]; [17],100
same,"Crabgrass, Large plant response rating",[12]; [18],100
same,"Ryegrass, Italian plant response rating",[13]; [21],5
same,"Ryegrass, Italian plant response rating",[13]; [22],40
same,"Plant response rating, Ryegrass, Italian",[13]; 13 to 15 days,85
same,"Ryegrass, Italian plant response rating",[13]; [23],90
same,Galium plant response rating,[14]; [21],100
same,Galium plant response rating,[14]; [22],100
same,"Plant response rating, Galium",[14]; 13 to 15 days,100
same,Galium plant response rating,[14]; [23],100
same,Wheat plant response rating (0 to 100 scale),[15],10
same,Wheat plant response rating,[15],100
same,Morningglory plant response rating,[16]; [17],100
same,Morningglory plant response rating,[16]; [18],100
O=C(NC1CC1)c1cc(CCCl)n(Cc2ccnc(C(F)(F)F)c2)n1 [Compound 144],Corn plant response rating,[1]; [17],90
same,Corn plant response rating,[1]; [18],50
same,"Plant response rating (scale of 0 to 100 where 0 is no effect and 100 is complete control), Morningglory",[2],35
same,Morningglory plant response rating,[2],40
same,"Plant response rating, Morningglory",[2]; [19],98
same,"Plant response rating, Morningglory",[2]; [20],85
same,"Plant response rating (scale of 0 to 100 where 0 is no effect and 100 is complete control), Barnyardgrass",[3],10
same,Barnyardgrass plant response rating,[3],15
same,"Plant response rating, Barnyardgrass",[3]; [19],15
same,"Plant response rating, Barnyardgrass",[3]; [20],10
same,"Nutsedge, Yellow plant response rating",[4]; [21],0
same,"Nutsedge, Yellow plant response rating",[4]; [22],45
same,"Plant response rating, Nutsedge, Yellow",[4]; 13 to 15 days,65
same,"Nutsedge, Yellow plant response rating",[4]; [23],90
same,"Plant response rating (scale of 0 to 100 where 0 is no effect and 100 is complete control), Galium",[5],40
same,Galium plant response rating,[5],55
same,"Plant response rating, Galium",[5]; [19],85
same,"Plant response rating, Galium",[5]; [20],70
same,"Crabgrass, Large plant response rating (0 to 100 scale)",[6],100
same,"Crabgrass, Large plant response rating",[6],100
same,"Plant response rating (scale of 0 to 100 where 0 is no effect and 100 is complete control), Blackgrass",[7],20
same,Blackgrass plant response rating,[7],5
same,"Plant response rating, Blackgrass",[7]; [19],35
same,"Plant response rating, Blackgrass",[7]; [20],30
same,Corn plant response rating,[8]; [21],5
same,Corn plant response rating,[8]; [22],20
same,"Plant response rating, Corn",[8]; 13 to 15 days,60
same,Corn plant response rating,[8]; [23],85
same,"Plant response rating (scale of 0 to 100 where 0 is no effect and 100 is complete control), Foxtail, Giant",[9],5
same,"Foxtail, Giant plant response rating",[9],10
same,"Plant response rating, Foxtail, Giant",[9]; [19],25
same,"Plant response rating, Foxtail, Giant",[9]; [20],15
same,"Foxtail, Giant plant response rating",[10]; [17],90
same,"Foxtail, Giant plant response rating",[10]; [18],90
same,Waterhemp plant response rating,[11]; [21],98
same,Waterhemp plant response rating,[11]; [22],98
same,"Plant response rating, Waterhemp",[11]; 13 to 15 days,100
same,Waterhemp plant response rating,[11]; [23],100
same,"Crabgrass, Large plant response rating",[12]; [17],90
same,"Crabgrass, Large plant response rating",[12]; [18],90
same,"Ryegrass, Italian plant response rating",[13]; [21],5
same,"Ryegrass, Italian plant response rating",[13]; [22],30
same,"Plant response rating, Ryegrass, Italian",[13]; 13 to 15 days,85
same,"Ryegrass, Italian plant response rating",[13]; [23],90
same,Galium plant response rating,[14]; [21],30
same,Galium plant response rating,[14]; [22],80
same,"Plant response rating, Galium",[14]; 13 to 15 days,100
same,Galium plant response rating,[14]; [23],100
same,Wheat plant response rating (0 to 100 scale),[15],50
same,Wheat plant response rating,[15],100
same,Morningglory plant response rating,[16]; [17],90
same,Morningglory plant response rating,[16]; [18],80
